In US20120245344A1 (NIPPON CHEMIPHAR CO., LTD., priority 2009, published 2012):

These compounds were tested against T1, human GPR119 (Homo sapiens, UniProt Q8TDV5) (assay: Measurement of intracellular cAMP in stable cell line expressing human GPR119 (GPR119 agonist effect)). Conditions: increase of intracellular cAMP, Flp-in T-Rex-293 cells expressing human GPR119, 37° C. for 30 minutes.
T1 construct: expressed in transfected cells; host or cells: Flp-in T-Rex-293 cells (Invitrogen #R78007), plasmid pcDNA5/FRT/TO, expression induced with tetracycline
T1 sequence (Q8TDV5 1-335): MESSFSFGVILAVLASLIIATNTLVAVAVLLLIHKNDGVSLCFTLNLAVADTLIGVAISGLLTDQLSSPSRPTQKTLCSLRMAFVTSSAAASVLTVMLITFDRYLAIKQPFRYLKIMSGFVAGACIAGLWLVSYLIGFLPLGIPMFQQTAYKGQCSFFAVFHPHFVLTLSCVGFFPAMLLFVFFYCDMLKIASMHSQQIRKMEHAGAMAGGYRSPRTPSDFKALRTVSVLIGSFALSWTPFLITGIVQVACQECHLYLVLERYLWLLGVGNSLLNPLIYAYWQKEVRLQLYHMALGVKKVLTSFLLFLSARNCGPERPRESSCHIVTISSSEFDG
Assay type: cell-based
Text: The GPR119 agonist effect is studied by measuring the effect of an analyte on increase of intracellular amount of cAMP in human GPR119 introduced cells. The testing method is described below.
Human GPR119 gene (NM 178471) is purchased from ATCC (ATCC No. 10807349), and is amplyfied according to PCR to form BamHI site at 5′ side and Apa I site at 3′ side. The primers are […] (sequence No. 1) and […] (sequence No. 2). The PCR conditions are described below.
The double-stranded DNA is thermally denatured using a DNA polymerase (KOD-Plus-Ver. 2; TOYOBO #KOD-211) at 98° C. for 10 seconds in one cycle. The denatured single-stranded DNA is annealed with the primers at 55° C. for 30 seconds. The DNA is subjected to an extension reaction at 68° C. for 1 minute and 15 seconds. The above-mentioned steps are repeated in 35 cycles. The PCR product is inserted into pcDNA5/FRT/TO (Invitrogen #V6520-20) plasmid. Flp-in T-Rex-293 cells (Invitorogen #R78007) are transfected with the obtained plasmid. The method of transfection is conducted in accordance with the protocol of the product.
(§1) The stable cell line expressing human GPR119 prepared in the above-mentioned method is plated on a 96-well plate at the concentration of 2,500 cells/well using Dulbecco's Modified Eagle Medium (DMEM) containing 10% fetal bovine serum (FBS). Twenty-four hours after plating, tetracyclin (Invitrogen #Q10019) is added at the final concentration of 20 ng/mL to induce hGPR119 gene expression. Twenty-four hours after, the medium is removed, and the cells are stimulated with an assay buffer (0.5 mM IBMX PBS (−)) containing the test compound at 37° C. for 30 minutes. The amount of the intracellular cAMP is measured using a commercially available kit (HitHunter™ cAMP XS+Assay: GE Healthcare #90007503) and a reader (FLUOstar Optima: BMG LABTECH). The test compound is dissolved in 100% DMSO, and added at the final concentration of 1%.
Human GPR119 gene (NM 178471) was purchased from ATCC (ATCC No. 10807349), and is amplyfied according to PCR to form BamHI site at 5′ side and Apa I site at 3′ side. The primers were […] (sequence No. 1) and […] (sequence No. 2). The PCR conditions are described below. The double-stranded DNA was thermally denatured using a DNA polymerase (KOD-Plus-Ver. 2; TOYOBO #KOD-211) at 98° C. for 10 seconds in one cycle. The denatured single-stranded DNA was annealed with the primers at 55° C. for 30 seconds. The DNA was subjected to an extension reaction at 68° C. for 1 minute and 15 seconds. The above-mentioned steps were repeated in 35 cycles. The PCR product was inserted into pcDNA5/FRT/TO (Invitrogen #V6520-20) plasmid. Flp-in T-Rex-293 cells (Invitorogen #R78007) were transfected with the obtained plasmid. The method of transfection was conducted in accordance with the protocol of the product.
as §1, with “method was” for “method is”, “#Q10019) was” for “#Q10019) is”, “medium was” for “medium is”, “cells were” for “cells are”, “cAMP was” for “cAMP is”, “compound was” for “compound is”
The examination was performed by the method similar to Example 87 Pharmacological experiment 1-(1), -(2).

**Q.** CC(C)(C)OC(=O)N1CCC(c2ccc(Cn3ccc4cc(S(C)(=O)=O)cc(N)c43)nc2)CC1 [Example 19, tert-Butyl 4-[2-(7-amino-5-methanesulfonylindol-1-ylmethyl)pyridin-5-yl]piperidine-1-carboxylate] was tested. Which EC50 did it give?
**A.** The EC50 was 181 nM.

**Q.** With Cc1cc(S(C)(=O)=O)cc2ccn(Cc3ccc(C4CCN(C(=O)OC(C)(C)C)CC4)cn3)c12 [Example 26, tert-Butyl 4-[2-(5-methanesulfonyl-7-methylindol-1-ylmethyl)pyridin-5-yl]piperidine-1-carboxylate] as the compound, how does the EC50 read?
**A.** The EC50 was 59.3 nM.

**Q.** CC(C)(C)OC(=O)N1CCC(c2ccc(Cn3ccc4cc(-n5cnnn5)ccc43)nc2)CC1 [Example 20, tert-Butyl 4-[2-[5-(tetrazol-1-yl)indol-1-ylmethyl]pyridin-5-yl]piperidine-1-carboxylate] was tested. Which EC50 did it give?
**A.** Its EC50 is 18.5 nM.

**Q.** With CC(C)(C)OC(=O)N1CCC(c2ccc(Cn3ccc4cc(S(C)(=O)=O)cc(Cl)c43)nc2)CC1 [Example 27, tert-Butyl 4-[2-(7-chloro-5-methanesulfonylindol-1-ylmethyl)pyridin-5-yl]piperidine-1-carboxylate] as the compound, how does the EC50 read?
**A.** The EC50 was 13.9 nM.

**Q.** CC(C)(C)OC(=O)N1CCC(c2ccc(CN3CCc4cc(-n5cnnn5)cc(F)c43)nc2)CC1 [Example 38, tert-Butyl 4-[2-[7-fluoro-5-(tetrazol-1-yl)indolin-1-ylmethyl]pyridin-5-yl]piperidine-1-carboxylate] was tested. Which EC50 did it give?
**A.** The EC50 was 5.4 nM.

**Q.** C[C@H]1C=C(c2ccc(Cn3ccc4cc(S(C)(=O)=O)ccc43)nc2)C[C@H](C)N1C(=O)OC(C)(C)C [Example 68, tert-Butyl (2S,6S)-2,6-dimethyl-4-[2-(5-methanesulfonylindol-1-ylmethyl)pyridin-5-yl]-3,6-dihydro-2H-pyridine-1-carboxylate] was tested. Which EC50 did it give?
**A.** Its EC50 is 96.8 nM.

**Q.** How did the EC50 turn out when CC(C)(C)OC(=O)N1CCC(c2cnc(Cn3ccc4cc(S(C)(=O)=O)ccc43)c(F)c2)CC1 [Example 13, tert-Butyl 4-[3-fluoro-2-(5-methanesulfonylindol-1-ylmethyl)pyridin-5-yl]piperidine-1-carboxylate] was run?
**A.** Its EC50 is 36.3 nM.

**Q.** CCc1cnc(N2CCC(c3ccc(Cn4ccc5cc(-n6cnnn6)ccc54)nc3)CC2)nc1 [Example 33, 5-Ethyl-2-[4-[2-[5-(tetrazol-1-yl)indol-1-ylmethyl]pyridin-5-yl]piperidin-1-yl]pyrimidine] was tested. Which EC50 did it give?
**A.** Its EC50 is 15.5 nM.

**Q.** Which EC50 does the source give for CC(C)(C)OC(=O)N1CC=C(c2ccc(Cn3ccc4cc(S(C)(=O)=O)ccc43)nc2)C(C)(C)C1 [Example 45, tert-Butyl 3,3-dimethyl-4-[2-(5-methanesulfonylindol-1-ylmethyl)pyridin-5-yl]-3,6-dihydro-2H-pyridine-1-carboxylate] here?
**A.** Its EC50 is 186 nM.

**Q.** For CC(C)(C)OC(=O)N1CCC(c2ccc(Cn3ccc4cc(S(C)(=O)=O)cc(C(F)(F)F)c43)nc2)CC1 [Example 49, tert-Butyl 4-[2-(5-methanesulfonyl-7-trifluoromethylindol-1-ylmethyl)pyridin-5-yl]piperidine-1-carboxylate], which EC50 is on record?
**A.** Its EC50 is 297 nM.

**Q.** For CCc1cnc(N2CCC(c3ccc(Cn4ccc5cc(S(C)(=O)=O)c(F)cc54)nc3)CC2)nc1 [Example 32, 5-Ethyl-2-[4-[2-(6-fluoro-5-methanesulfonylindol-1-ylmethyl)pyridin-5-yl]piperidin-1-yl]pyrimidine], which EC50 is on record?
**A.** Its EC50 is 52 nM.

**Q.** With CC1CN(C(=O)OC(C)(C)C)CC=C1c1ccc(Cn2ccc3cc(S(C)(=O)=O)ccc32)nc1 (centres unmarked) [Example 43, tert-Butyl 4-[2-(5-methanesulfonylindol-1-ylmethyl)pyridin-5-yl]-3-methyl-3,6-dihydro-2H-pyridine-1-carboxylate] as the compound, how does the EC50 read?
**A.** The EC50 was 58.7 nM.

**Q.** Which EC50 does the source give for CC1CN(C(=O)OC(C)(C)C)CC=C1c1ccc(Cn2ccc3c(F)c(S(C)(=O)=O)c(F)cc32)nc1 (centres unmarked) [Example 62, tert-Butyl 4-[2-(4,6-difluoro-5-methanesulfonylindol-1-ylmethyl)pyridin-5-yl]-3-methyl-3,6-dihydro-2H-pyridine-1-carboxylate] here?
**A.** Its EC50 is 65.2 nM.

**Q.** Which EC50 does the source give for CC(C)(C)OC(=O)N1CCC(c2ccc(Cn3ccc4cc(S(C)(=O)=O)c(Cl)cc43)nc2)CC1 [Example 31, tert-Butyl 4-[2-(6-chloro-5-methanesulfonylindol-1-ylmethyl)pyridin-5-yl]piperidine-1-carboxylate] here?
**A.** Its EC50 is 41.1 nM.

**Q.** Cc1cc(C2CCN(C(=O)OC(C)(C)C)CC2)cnc1Cn1ccc2cc(-n3cncn3)ccc21 [Example 58, tert-Butyl 4-[3-methyl-2-[5-(1,2,4-triazol-1-yl)indol-1-ylmethyl]pyridin-5-yl]piperidine-1-carboxylate] was tested. Which EC50 did it give?
**A.** Its EC50 is 13.1 nM.

**Q.** CC(C)(C)OC(=O)N1CCC(c2ccc(Cn3ccc4cc(S(C)(=O)=O)cc(F)c43)nc2)CC1 [Example 11, tert-Butyl 4-[2-(7-fluoro-5-methanesulfonylindol-1-ylmethyl)pyridin-5-yl]piperidine-1-carboxylate] was tested. Which EC50 did it give?
**A.** The EC50 was 21.4 nM.

**Q.** Which EC50 does the source give for CC(C)(C)OC(=O)N1CCC(c2ccc(Cn3cc4cc(S(C)(=O)=O)ccc4n3)nc2)CC1 [Example 22, tert-Butyl 4-[2-(5-methanesulfonylindazol-2-ylmethyl)pyridin-5-yl]piperidine-1-carboxylate] here?
**A.** The EC50 was 458 nM.

**Q.** How did the EC50 turn out when CC(C)(C)OC(=O)N1CCC(c2ccc(Cn3ccc4cc(S(C)(=O)=O)ncc43)nc2)CC1 [Example 29, tert-Butyl 4-[2-(5-methanesulfonyl-1H-pyrrolo[2,3-c]pyridin-1-ylmethyl)pyridin-5-yl]piperidine-1-carboxylate] was run?
**A.** The EC50 was 39 nM.

**Q.** Which EC50 does the source give for Cc1nc(S(C)(=O)=O)cc2ccn(Cc3ccc(C4CCN(C(=O)OC(C)(C)C)CC4)cn3)c12 [Example 28, tert-Butyl 4-[2-(5-methanesulfonyl-7-methyl-1H-pyrrolo[2,3-c]pyridin-1-ylmethyl)pyridin-5-yl]piperidine-1-carboxylate] here?
**A.** Its EC50 is 82.1 nM.

**Q.** How did the EC50 turn out when CC(C)(C)OC(=O)N1CCC(c2ccc(Cn3ncc4cc(S(C)(=O)=O)ccc43)nc2)CC1 [Example 21, tert-Butyl 4-[2-(5-methanesulfonylindazol-1-ylmethyl)pyridin-5-yl]piperidine-1-carboxylate] was run?
**A.** The EC50 was 428 nM.

**Q.** Which EC50 does the source give for C[C@H]1CC(c2ccc(Cn3ccc4cc(S(C)(=O)=O)ccc43)nc2)C[C@H](C)N1C(=O)OC(C)(C)C (stereo partly drawn) [Example 69, tert-Butyl (2S,6S)-2,6-dimethyl-4-[2-(5-methanesulfonylindol-1-ylmethyl)pyridin-5-yl]piperidine-1-carboxylate] here?
**A.** Its EC50 is 17.5 nM.

**Q.** How did the EC50 turn out when Cc1cc(C2CCN(C(=O)OC(C)(C)C)CC2)cnc1Cn1ccc2cc(S(C)(=O)=O)ccc21 [Example 5, tert-Butyl 4-[2-(5-methanesulfonylindol-1-ylmethyl)-3-methylpyridin-5-yl]piperidine-1-carboxylate] was run?
**A.** Its EC50 is 31.6 nM.

Same assay, conditions: statement in words on Tables 10 to 13

**Q.** With CC(C)(C)OC(=O)N1CCC(c2ccc(CN3CCc4cc(-n5cnnn5)cc(F)c43)nc2)CC1 [Example 38, tert-Butyl 4-[2-[7-fluoro-5-(tetrazol-1-yl)indolin-1-ylmethyl]pyridin-5-yl]piperidine-1-carboxylate] as the compound, how does the “GPR119 agonist effect (in words)” value read?
**A.** Its value is “excellent GPR119 agonist effect”.
